One data set relates to L. infantum amastigotes. The data set can be described thus: Ex vivo murine splenic explant culture with intramacrophagic iRFP L. infantum amastigotes. Type of data set: cell-based, Leishmania infantum. The conditions noted are these: 72 h, read-out: EC50 L. infantum amastigotes. How it is done: (§1) Two series of aromathecins (Table 1) have been tested against both stages of L. infantum, free-living promastigotes and intracellular amastigotes harbored in mouse splenic cells. Experiments were carried out using a genetically modified L. infantum strain that constitutively produces the iRFP protein. This makes it possible to evaluate the viability of parasites measuring the fluorescence emitted at 708 nm.
Primary splenocyte cultures containing intramacrophagic amastigotes were obtained from dissected spleens of female BALB/c mice infected intraperitoneally with 1.5 × 10^9 metacyclic iRFP L. infantum promastigotes, 5 weeks before their sacrifice. Mice were obtained commercially (Janvier-Labs). Animals were housed in specific-pathogen free facilities and they were euthanized by cervical dislocation without anesthesia. These protocols were approved by the Animal Care Committee of University of Leon (project license SAF2017–83575-R), which complies with European Union Legislation (2010/63/UE) and Spanish Act (RD 53/2013).
(§2) The spleens were washed with cold phosphate-buffered saline (PBS), cut in small pieces and incubated for 20 min with 5 mL of 2 mg/mL collagenase D (Sigma) prepared in buffer (10 mM HEPES, pH 7.4, 150 mM NaCl, 5 mM KCl, 1 mM MgCl2 and 1.8 mM CaCl2). After that, the cell suspension obtained was passed through a 100 μm cell strainer, harvested by centrifugation (500×g for 7 min at 4 °C), washed twice with PBS, and cultured at 37 °C under 5% CO2 atmosphere in RPMI medium (Gibco) supplemented with 10 mM HEPES, 1 mM sodium pyruvate, 1xRPMI 1640 vitamin mix, 10% (v/v) FBS, 50 U/mL penicillin and 50 μg/mL streptomycin (Calvo-Álvarez et al., 2015).
(§3) The viability of cultured parasites in the presence of different concentrations of aromathecins was determined by measuring the reduction of infrared fluorescence emitted by free-living promastigotes/amastigotes with respect to negative controls of each form of the parasite treated with DMSO (up to 0.1% final concentration) as a vehicle. […] After 72 h incubation at 26 °C, the infrared fluorescence emitted at 708 nm by viable promastigotes/amastigotes was measured in an Odyssey (Li-Cor) infrared imaging system. Similarly, the cytotoxic effect (CC50) of aromathecins on uninfected splenic explants from BALB/c mice (cells that naturally harbor the amastigote stage) was measured by the Alamar Blue (Invitrogen) assay. The selectivity index (SI) was determined as the relationship between the CC50 value and the EC50 value for amastigotes. CC50 and EC50 were calculated by nonlinear analysis using the Sigma-Plot 10.0 statistical package. The aromathecins were dissolved in DMSO and stored at − 20 °C before their use as fresh aliquots.

In data set [1] the test system is L. infantum promastigotes. The data set can be described thus: In vitro iRFP L. infantum promastigotes viability assay (infrared fluorescence). The conditions noted are these: 72 h, read-out: EC50 L. infantum promastigotes. Type of data set: cell-based, Leishmania infantum. How it is done: as §1
The antiparasitic activity of the compounds was assessed on the genetically modified iRFP L. infantum strain, which constitutively produces the infrared fluorescent protein (iRFP) when cells are viable. iRFP L. infantum was grown at 26 °C in M-199 medium (Gibco) supplemented with 25 mM HEPES pH 7.2, 0.1 mM adenine, 0.0005% (w/v) hemin, 2 μg/mL biopterin, 0.0001% (w/v) biotin, 10% (v/v) heat-inactivated fetal bovine serum (FBS) and an antibiotic cocktail comprising 50 U/mL penicillin and 50 μg/mL streptomycin.
as §3

A further data set relates to Murine Splenocytes. Put plainly: Cytotoxicity on uninfected splenic explants (Alamar Blue). The class given is cell-based, BALB/c mice. How it is done: as §2, §3
(Resazurin is reduced to fluorescent resorufin, in cell work by metabolically active cells.)

A short description of data set [2]: Solubility limit in culture medium. Type of data set: physicochemical. The conditions noted are these: M199 culture medium. How it is done:
The CPT resistant strain used in this work was generated exposing L. infantum promastigotes to increased concentrations of CPT, from 0.1 to the solubility limit of the compound, 20 μM in the case of CPT. Parasites were grown at 26 °C in M199 medium supplemented as described previously, each culture being inoculated at an initial density of 10^6 cells/mL. The promastigotes cultured in liquid medium in the presence of 20 μM CPT, were plated on semisolid M199 medium containing 20 μM CTP in order to select a single colony.

Data set [3] in a line: Cytotoxicity on uninfected splenic explants (Alamar Blue). Type of data set: cell-based, BALB/c mice. The following applies: mouse; uninfected splenic explants from BALB/c mice, Alamar Blue; read-out: CC50 Murine Splenocytes. Here is the method:
as §2, §3

The structures appear in SMILES notation. Converted amounts (≈) assume the structure as drawn. Like-named read-outs stand apart in the source and are kept apart here.

Regarding `C[C@@H]1[C@H](O)[C@@H](C)/C=C/C=C/C=C/C=C/C=C/C=C/C=C/[C@H](O[C@@H]2O[C@H](C)[C@@H](O)[C@H](N)[C@@H]2O)C[C@@H]2O[C@](O)(C[C@@H](O)C[C@@H](O)[C@H](O)CC[C@@H](O)C[C@@H](O)CC(=O)O[C@H]1C)C[C@H](O)[C@H]2C(=O)O` [AMB, reference compound], the EC50 in the data set on L. infantum amastigotes (splenic-infecting amastigotes, ex vivo explants from infected BALB/c mice) turned out to be 300 nM; in data set [1] (iRFP-L. infantum promastigotes, 26 °C, fluorescence at 708 nm, average of three experiments by duplicate), 800 ± 100 nM. The compound also yielded a CC50 in the data set with Murine Splenocytes greater than 20000 nM.

For `CC[C@@]1(O)C(=O)OCc2c1cc1n(c2=O)Cc2cc3ccccc3nc2-1` [CPT, Camptothecin, reference compound], the EC50 is 30 ± 10 nM with L. infantum amastigotes (Leishmania infantum) and 1120 ± 130 nM in data set [1] (Leishmania infantum). This compound also registered a solubility in data set [2] of 20 µM (≈ 6.97 µg/mL). The CC50 at 72 h in data set [3] came to 620 ± 10 nM.

In general, EC50 refers to the concentration needed to bring the measured effect to its halfway point. Broadly, the CC50 is the concentration that lowers cell viability or growth by half. As a reminder, the solubility is the concentration that dissolves in the medium under given conditions.

Source of the values: article PMC6842543, “Antiparasitic effect of synthetic aromathecins on Leishmania infantum” (BMC Veterinary Research, 2019).
